From paper PMC11172375, “Preclinical Evaluation of Biodistribution and Toxicity of [^211At]PSMA-5 in Mice and Primates for the Targeted Alpha Therapy against Prostate Cancer” (International Journal of Molecular Sciences, 2024)

How the values were obtained:
[1] = Biodistribution in cynomolgus monkey (planar/SPECT imaging, 24 h autopsy); format: in vivo; conditions: 9 MBq/kg i.v.
Method: (§1) [^211At]PSMA-5 was administered intravenously to 25 mice, and its biodistribution was evaluated. For the toxicity study, three doses of [^211At]PSMA-5 (5, 12, and 35 MBq/kg, single dose) or saline were intravenously administered to 10 mice/group for the main evaluation point on day 1, and 5-mice/group for recovery evaluation on day 14, adhering to the ICH M3 (R2) guidelines. The dosage was determined based on our previous study using [^211At]NaAt. The monkeys were monitored for 24 h post-administration of [^211At]PSMA-5 (9 MBq/kg).
Monkeys were anesthetized with intramuscular administration of ketamine (10 mg/kg) and xylazine (0.5 mg/kg) with isoflurane inhalation anesthesia. Planar and Single Photon Emission Computed Tomography (SPECT) imaging was performed in monkeys using a γ-camera system (E-cam, Siemens, Erlangen, Germany) immediately after administration to 1 h and at 3 and 24 h post-administration of [^211At]PSMA-5 (9 MBq/kg), targeting the X-rays emitted from the daughter nuclide ^211Po (energy window: 79 keV ± 20%). […]
Urine and feces samples were collected at each time point. […] Organ weights and radiation doses were measured using a γ-counter (model: 2480Wizard2, PerkinElmer) and γ-camera system (E-cam) by appropriate cross-calibration.

[2] = Hematological examination in monkeys; format: in vivo, cynomolgus monkeys; conditions: for %Lymph / Hb / Ht / Platelet / RBC / WBC: monkeys, 9 MBq/kg i.v.
Method: as §1
(§2) Monkeys were anesthetized with intramuscular administration of ketamine (10 mg/kg) and xylazine (0.5 mg/kg) with isoflurane inhalation anesthesia. Planar and Single Photon Emission Computed Tomography (SPECT) imaging was performed in monkeys using a γ-camera system (E-cam, Siemens, Erlangen, Germany) immediately after administration to 1 h and at 3 and 24 h post-administration of [^211At]PSMA-5 (9 MBq/kg), targeting the X-rays emitted from the daughter nuclide ^211Po (energy window: 79 keV ± 20%). Subsequent image analysis was performed by setting the regions of interest using Osirix MD software (Version 13, Pixmeo SARL, Bernex, Switzerland) and PMOD software (Version 3.903, PMOD Technologies, Fällanden, Switzerland). Blood samples were obtained pre-administration and at 1, 3, and 24 h post-administration, followed by euthanasia via bloodletting at 24 h.
(§3) A blood cell counter was used for the measurements (CB-1010; ARKRAY, Inc., Kyoto, Japan). Red blood cell count (RBC), hemoglobin concentration (Hb), hematocrit (Ht), white blood cell count (WBC), platelet count (platelet), lymphocytes (%Lymph), monocytes (%Mon), and granulocytes (%Gra) were calculated. Plasma was analyzed using a dry clinical chemistry analyzer (Spotchem D-00 QR D-02; ARKRAY, Inc., Kyoto, Japan). The levels of aspartate aminotransferase (AST), alanine aminotransferase (ALT), gamma-glutamyl transpeptidase (γ-GTP), lactate dehydrogenase (LDH), alkaline phosphatase (ALP), creatine kinase (CK), amylase (AMY), total bilirubin (TBIL), creatinine (CRE), urea nitrogen (BUN), glucose (GLU), total protein (TP), albumin (ALB), total cholesterol (TCHO), triglyceride (TG), and electrolytes (Na, K, and Cl) were measured.

[3] = parameters: method as in PMID 35553387; conditions: LNCaP xenograft mice, 1MBq (53MBq/kg), 3 and 6 weeks after administration; cited from earlier work
[4] = Necropsy and histological evaluation in mice; format: in vivo, ICR mice
Method: as §1
The brain, salivary gland, thyroid, heart, lungs, liver, kidney, adrenal gland, pancreas, spleen, thymus, stomach, small intestine, large intestine, bladder, prostate, and testes were collected on days 1 or 14 in mice and at 24 h in monkeys. Additionally, the pituitary gland, tongue, trachea, esophagus, mesenteric lymph nodes, epididymis, seminal vesicles, skin, mammary glands, spinal cord, bone, bone marrow (femur), eyeball, and optic nerve were collected from the mice. After fixation, paraffin sections were prepared and stained with hematoxylin and eosin (HE). All the specimens were evaluated by an expert in toxic pathology using an integrated fluorescence microscope (BZ-X810; Keyence Corporation. Osaka, Japan). In mice, the brain, salivary glands, heart, lungs, liver, gallbladder, spleen, kidneys, and testes were weighed according to ICH S4 guideline.

[5] = Blood chemistry analysis in monkeys; format: in vivo, cynomolgus monkeys; conditions: for ALB / ALP / ALT / AMY / AST / BUN / CK / CRE / K / LDH / Na / TBIL / TCHO / TG / TP / γ-GTP / GLU: monkeys, 9 MBq/kg i.v.
Method: as §1, §2, §3

[6] = mice, 12 MBq/kg, regarded as spontaneous lesion
[7] = 24 hrs, might be affected by hemolysis

## O=C(O)CC[C@H](NC(=O)N[C@@H](CCCCNC(=O)[C@@H](Cc1ccc2ccccc2c1)NC(=O)c1ccc(CNC(=O)[C@@H](CCC(=O)O)NC(=O)[C@@H](CCC(=O)O)NC(=O)Cc2ccc([211At])cc2)cc1)C(=O)O)C(=O)O [[^211At]PSMA-5]
[1]
  cumulative fecal excretion: 11.27 %ID
  cumulative urinary excretion: 0.46 %ID
[2]; cynomolgus monkeys, 9 MBq/kg, 24 h after administration
  leukopenia (mainly lymphopenia): mild but significant leukopenia
[2]; 1 h
  %Lymph: 44.0 ± 16.0%
  Hb: 10.3 ± 1.4 g/dL
  Ht: 32.9 ± 4.8%
  Platelet: 263.7 ± 33.0 10^3 cell/µL
  RBC: 4.30 ± 0.30 10^6 cell/µL
  WBC: 10.1 ± 0.7 10^3 cell/µL
[2]; 3 h
  %Lymph: 52.0 ± 4.5%
  Hb: 11.2 ± 0.8 g/dL
  Ht: 35.4 ± 2.5%
  Platelet: 306.8 ± 41.2 10^3 cell/µL
  RBC: 4.70 ± 0.00 10^6 cell/µL
  WBC: 6.7 ± 1.4 10^3 cell/µL
[2]; 24 h
  %Lymph: 23.7 ± 1.1%
  Hb: 9.9 ± 0.5 g/dL
  Ht: 31.8 ± 1.5%
  Platelet: 269.7 ± 60.8 10^3 cell/µL
  RBC: 4.20 ± 0.10 10^6 cell/µL
  WBC: 5.3 ± 0.8 10^3 cell/µL
[3]
  kidney histology: regenerated tubules were observed
[4]; expert evaluation
  gross findings during necropsy: no gross abnormalities beyond spontaneous lesions
[4]; mice, 5, 12 and 35 MBq/kg
  histological changes in the thyroid, testes, and kidneys compared to the control group: no significant changes
[4]; mice, 5-35 MBq/kg, day 1
  single-cell necrosis/apoptosis of crypt epithelial cells in pyloric glands of the stomach, duodenum, jejunum: dose-dependent increase
  tingible body macrophages in white pulp of the spleen and lymphoid follicles of mesenteric lymph nodes: dose-dependent increase
[4]; mice, 12 MBq/kg, day 1
  incidence of increased single-cell necrosis/apoptosis in striatal epithelial and serous cells of the salivary gland: 1/10
[4]; [6]
  incidence of atrophy of the seminal vesicles: 1/10
  incidence of intraperitoneal mass: 1/10
[4]; mice, 35 MBq/kg, day 1
  incidence of cortical lymphopenia in the thymus: 2/10
  incidence of decrease in bone marrow cells: 9/10
  incidence of increased single-cell necrosis/apoptosis in striatal epithelial and serous cells of the salivary gland: 7/10
[4]; mice, 35 MBq/kg, considered a spontaneously occurring lesion
  incidence of mild localized hepatocellular necrosis in the liver: 1/10
[4]; mice, day 14 post-administration
  degenerative changes in salivary glands, stomach, duodenum, jejunum, spleen, mesenteric lymph nodes, bone marrow, thymus: not observed
[5]; cynomolgus monkeys, 9 MBq/kg
  LDH levels: elevated in both monkeys
  renal function or electrolyte levels: No significant changes
[5]; cynomolgus monkeys, 9 MBq/kg, 24 h post-administration
  monkeys with a mild increase in amylase: 1/2
[5]; 1 hr
  ALB: 2.5 ± 0.4 g/dL
  ALP: 835 ± 173.6 IU/L
  ALT: 11.3 ± 1.8 IU/L
  AMY: 291 ± 62.2 IU/L
  AST: 13.3 ± 4.6 IU/L
  BUN: 24.8 ± 2.5 mg/dL
  CK: 496 ± 321.4 IU/L
  CRE: 0.5 ± 0.2 mg/dL
  K: 4.3 ± 0.2 mEq/L
  LDH: 231 ± 27.9 IU/L
  Na: 140 ± 2.8 mEq/L
  TBIL: 0.3 ± 0.1 mg/dL
  TCHO: 84 ± 24 mg/dL
  TG: 25.5 ± 0.7 mg/dL
  TP: 3.6 ± 0.4 g/dL
  γ-GTP: 61.8 ± 8.1 IU/L
[5]; 1 hr, suggests contamination from the infusion fluid
  GLU: 309 ± 177 mg/dL
[5]; 3 hrs
  ALB: 2.5 ± 0.1 g/dL
  ALP: 890 ± 47.4 IU/L
  ALT: 12 ± 2.8 IU/L
  AMY: 342 ± 38.2 IU/L
  BUN: 27 ± 1.4 mg/dL
  CK: 522 ± 101.8 IU/L
  CRE: 0.75 ± 0.21 mg/dL
  GLU: 62 ± 56.6 mg/dL
  K: 4.9 ± 0.4 mEq/L
  LDH: 255 ± 4.9 IU/L
  Na: 143 ± 0 mEq/L
  TBIL: 0.3 ± 0.0 mg/dL
  TCHO: 91 ± 17 mg/dL
  TG: 28 ± 4.2 mg/dL
  TP: 3.7 ± 0.1 g/dL
  γ-GTP: 66.5 ± 19.1 IU/L
[5]; 24 hrs
  ALB: 2.7 ± 0 g/dL
  ALP: 768 ± 34.4 IU/L
  ALT: 24.8 ± 21 IU/L
  AMY: 565 ± 197 IU/L
  BUN: 35.7 ± 2.4 mg/dL
  CK: 713 ± 293.9 IU/L
  CRE: 0.7 ± 0.0 mg/dL
  GLU: 77.7 ± 1.4 mg/dL
  K: 4 ± 0.2 mEq/L
  Na: 146 ± 3.1 mEq/L
  TBIL: 0.7 ± 0.3 mg/dL
  TCHO: 90.7 ± 0.5 mg/dL
  TG: 28.7 ± 4.7 mg/dL
  TP: 4.2 ± 0.4 g/dL
  γ-GTP: 65 ± 17.9 IU/L
[5]; [7]
  AST: 38.7 ± 19.3 IU/L
  LDH: 471 ± 30.2 IU/L
